Patent US20250255929A1, “METHODS FOR REDUCING RISKS ASSOCIATED WITH HEART FAILURE AND FACTORS ASSOCIATED THEREWITH” (Stealth BioTherapeutics Inc., priority 2012, published 2025)
“And” between values parts separate entries of the source, which are not always exact repeats. Identical values can stand only once. Square brackets hold non-standard residues; d marks the D form. Ends that are not written are not given here. Dmt = Cc1cc(O)cc(C)c1C[C@H](N)C(=O)O

How the values were obtained:
Assay type in all cases: in vivo
Taz1 = Taz1 mRNA in LV tissue (real-time PCR), dog model of heart failure; details: LV tissue of HF dogs, 3 months, 0.5 mg/kg once daily s.c., n=6; untreated HF decreased 2.25-fold vs normal; normalized to GAPDH
Method: (§1) Heart failure was induced in dogs via multiple sequential intracoronary microembolizations as described in Sabbah, et al., Am J Physiol. (1991) 260:H1379-84, herein incorporated by reference in its entirety.
(§2) Twelve dogs were subject to coronary microembolization-induced heart failure (LV ejection fraction ˜30%) as described in Example 1. […] RNA was prepared from LV tissue of all 12 dogs at the end of the treatment phase and from the LV of 6 normal (NL) dogs for comparison. mRNA levels of Taz1, MLCL AT1 and ALCAT1 were determined by real-time PCR. Changes in mRNA expression were expressed as fold changes using the CT Method with normalization to […] (GAPDH) as internal control.

[1] = system: Mitochondrial ATP to ADP ratio; test: Mitochondrial ATP to ADP ratio (ApoSENSOR assay) in LV mitochondria, dog model of heart failure; details: LV mitochondria of HF dogs after three months, 0.5 mg/kg/day, n=5; control 0.38±0.04, p<0.05
Method: (§3) Heart failure was induced as described in Example 1. […] Half the dogs were treated with the peptide (n=5); the other half were treated with drug vehicle and served as controls (n=5). Peptide treatment was started upon induction of heart failure (HF), defined as left ventricular ejection fraction of approximately 30%. The daily dose of the peptide was 0.5 mg/kg/day administered intravenously for three months. Subcutaneous daily injections of saline were administered to the controls. Left ventricular tissue was harvested at the end of the three months of treatment. Mitochondria were isolated from the tissue. MK ATP activation was measured using the thallium-sensitive fluorophore assay kit and quantified in relative fluorescence units (RFU) per mg protein. Mitochondrial ATP to ADP ratio was measured using the bioluminescent ApoSENSOR™ assay kit (Enzo Life Sciences, Farmingdale, NY).

TNF-alpha = test: Plasma TNF-alpha (double antibody sandwich ELISA) in dog model of heart failure; details: for plasma TNF-alpha levels (FIG. 4), in words: HF dogs
Method: The methods of Example 1 was used induce heart failure, administer peptide or vehicle, and to collect plasma samples for analysis. Fourteen dogs were used in this example. Half the dogs were treated with the peptide; the other half were treated with drug vehicle and served as controls. Peptide treatment was started in both groups upon induction of heart failure (HF), defined as left ventricular ejection fraction of approximately 30%.
TNF-alpha was quantified in EDTA-plasma using a double antibody sandwich ELISA. Briefly, TNF-alpha (Canine TNFα Duo Sett, Cat #DY1507) was purchased from R&D Systems. The assay was performed based on instructions provided by the supplier with minor modifications. The amount of EDTA-plasma incubated with antibody plate was 150 μl and incubation time was 18 hours at 4° C. Using standard curves and software, the concentration of TNFα was expressed as pg/ml.

MLCL AT1 = MLCL AT1 mRNA in LV tissue (real-time PCR), dog model of heart failure; details: LV tissue of HF dogs, 3 months, 0.5 mg/kg once daily s.c., n=6; untreated HF increased 2.60-fold vs normal; normalized to GAPDH
Method: as §1, §2

ALCAT1 = ALCAT1 mRNA in LV tissue (real-time PCR), dog model of heart failure; details: LV tissue of HF dogs, 3 months, 0.5 mg/kg once daily s.c., n=6; untreated HF increased 3.56-fold vs normal; normalized to GAPDH
Method: as §1, §2

[2] = system: mitochondrial ATP-sensitive potassium channel (mK ATP); test: mK ATP activation in LV mitochondria (thallium-sensitive fluorophore assay), dog model of heart failure; details: LV mitochondria of HF dogs after three months, 0.5 mg/kg/day, n=5; control 1372±112, p<0.05
Method: as §1, §3

interleukin-6 (IL-6) = test: Plasma IL-6 (double antibody sandwich ELISA) in dog model of heart failure; details: for plasma IL-6 levels (FIG. 3), in words: HF dogs
Method: The methods of Example 1 were used to induce heart failure, administer peptide or vehicle and collect plasma. Fourteen dogs were used in this example. Half the dogs were treated with the mitochondrial peptide; the other half were treated with drug vehicle and served as controls. Peptide treatment was started in both groups upon induction of heart failure (HF), defined as left ventricular ejection fraction of approximately 30%.
IL-6 was quantified in EDTA-plasma using the double antibody sandwich ELISA technique. Briefly, IL-6 (Canine IL-6 Duo Set, Cat #DY1609) was purchased from R&D Systems. The assay was performed based on instructions provided by the supplier with minor modifications. The amount of EDTA-plasma incubated with the antibody plate was 150 μl and incubation time was 18 hours at 4° C. Using standard curves and software, the concentration of IL-6 was expressed as pg/ml.

[3] = plasma, individual HF dogs, 6 weeks after initiating therapy
[4] = plasma, individual HF dogs, 12 weeks after initiating therapy
[5] = plasma, mean of 7 HF dogs, 6 weeks after initiating therapy
[6] = plasma, mean of 7 HF dogs, 12 weeks after initiating therapy
[7] = plasma, peptide group mean (7 dogs), baseline (before HF and treatment)
[8] = plasma, peptide group mean (7 dogs), heart failure prior to initiating therapy
[9] = plasma, peptide group, individual dogs, baseline (before HF and treatment)
[10] = plasma, peptide group, individual dogs, heart failure prior to initiating therapy

Substance: D-Arg-2′,6′-Dmt-Lys-Phe-NH2 ([dR][Dmt]KF-NH2) [aromatic-cationic peptide]
- Taz1 mRNA: attenuated decrease, fold (Taz1): 1.23 fold
- ATP/ADP (mitochondrial ATP to ADP ratio) [1]: 1.16±0.15
- plasma TNF-alpha levels (FIG. 4), in words (TNF-alpha; treatment for 12 weeks): near normal levels
- plasma TNF-alpha levels (FIG. 4), in words (TNF-alpha; treatment for six weeks): reduced TNF-alpha levels
- TNF-α concentration, 6 Wk (TNF-alpha; [3]): 3.27 pg/mL and 3.08 pg/mL and 3.50 pg/mL and 3.16 pg/mL and 3.72 pg/mL and 3.12 pg/mL and 2.60 pg/mL
- TNF-α concentration, 12 Wk (TNF-alpha; [4]): 1.14 pg/mL and 1.42 pg/mL and 1.18 pg/mL and 1.75 pg/mL and 1.69 pg/mL and 1.53 pg/mL and 1.35 pg/mL
- TNF-α concentration, 6 Wk, Mean (TNF-alpha; [5]): 3.21 pg/mL
- TNF-α concentration, 12 Wk, Mean (TNF-alpha; [6]): 1.44 pg/mL
- TNF-α concentration, BL, Mean (TNF-alpha; [7]): 1.24 pg/mL
- TNF-α concentration, PRE, Mean (TNF-alpha; [8]): 4.36 pg/mL
- TNF-α concentration, BL (TNF-alpha; [9]): 0.90 pg/mL and 0.97 pg/mL and 1.02 pg/mL and 1.85 pg/mL and 1.30 pg/mL and 1.11 pg/mL and 1.54 pg/mL
- TNF-α concentration, PRE (TNF-alpha; [10]): 4.26 pg/ml (2×) and 3.96 pg/ml and 4.69 pg/ml and 4.59 pg/ml and 4.31 pg/ml and 4.42 pg/ml
- MLCL AT1 mRNA: reduced increase, fold (MLCL AT1): 1.18 fold
- ALCAT1 mRNA: reduced increase, fold (ALCAT1): 1.54 fold
- activation of mK ATP [2]: 2775±254 relative fluorescence units (R
- plasma IL-6 levels (FIG. 3), in words (interleukin-6 (IL-6); treatment for 12 weeks): near normal levels
- plasma IL-6 levels (FIG. 3), in words (interleukin-6 (IL-6); treatment for six weeks): reduced IL-6 levels
- IL-6 concentration, 6 Wk (interleukin-6 (IL-6); [3]): 18.8 pg/ml and 23.4 pg/ml and 24.3 pg/ml and 19.5 pg/ml and 19.6 pg/ml (2×) and 20.5 pg/ml
- IL-6 concentration, 12 Wk (interleukin-6 (IL-6); [4]): 11.7 pg/mL and 11.3 pg/mL and 13.6 pg/mL and 11.5 pg/mL and 12.5 pg/mL and 11.9 pg/mL and 11.4 pg/mL
- IL-6 concentration, 6 Wk, Mean (interleukin-6 (IL-6); [5]): 20.8 pg/mL
- IL-6 concentration, 12 Wk, Mean (interleukin-6 (IL-6); [6]): 12.0 pg/mL
- IL-6 concentration, BL, Mean (interleukin-6 (IL-6); [7]): 10.1 pg/mL
- IL-6 concentration, PRE, Mean (interleukin-6 (IL-6); [8]): 26.6 pg/mL
- IL-6 concentration, BL (interleukin-6 (IL-6); [9]): 9.1 pg/mL and 5.8 pg/mL and 7.0 pg/mL and 12.6 pg/mL and 10.3 pg/mL and 12.5 pg/mL and 13.0 pg/mL
- IL-6 concentration, PRE (interleukin-6 (IL-6); [10]): 29.3 pg/mL and 18.5 pg/mL and 29.2 pg/mL and 18.0 pg/mL and 31.2 pg/mL and 29.4 pg/mL and 30.4 pg/mL
